Measured values reported in patent US20010044445A1, “AZOLE INHIBITORS OF CYTOKINE PRODUCTION” (priority 1999, published 2001).

How the values were obtained:
[1] = test system: Human peripheral blood mononuclear cells; test: Human Concanavalin-A Proliferation Assay (Con HU Assay); format: cell-based; conditions: concanavalin-A stimulated human PBMC; for inhibition at 1 µM / inhibition at 100 µM / IC50 / inhibition at 10 µM: Homo sapiens, PBMC; for inhibition at 1 µM / inhibition at 100 µM / inhibition at 10 µM: 72 h, read-out: % Inhibition of proliferation (at concentrations of 1,10, or 100 μm); for inhibition at 100 µM: concentration 100 μm (in parentheses in the cell); for IC50: tritiated thymidine; for inhibition at 10 µM: concentration 10 μm (in parentheses in the cell)
Procedure, shortened: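 Proliferation read as tritiated thymidine uptake (0.5 μCi/well, 6 h pulse on day 3) in human PBMC cultured 3 days with 2.5 μg/ml (final) concanavalin-A. Cells, 50,000 per well in supplemented RPMI 1640 with 10% FBS, received compound 15 min before mitogen.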

[2] = concentration 1 μm (in parentheses in the cell), 3 days

| melting point | SMILES | inhibition at 1 µM [1, 2] | inhibition at 100 µM ([1]; 3 days) | IC50 [1] | % Inhibition of proliferation (at concentrations of 1,10, or 100 μm) [1, 2] | inhibition at 10 µM ([1]; 3 days) |
| --- | --- | --- | --- | --- | --- | --- |
| 150 to 152 °C | O=C(Nc1cccc(-n2nc(C(F)(F)F)cc2C(F)(F)F)c1)c1ccc(F)cc1 [Example 202, N-[3-[3,5-bis(trifluoromethyl)-1H-pyrazol-1-yl]phenyl]-4-fluorobenzamide] | 6% | – | – | – | – |
| 169 to 171 °C | N#Cc1ccc(C(=O)Nc2ccc(-n3nc(C(F)(F)F)cc3C(F)(F)F)cc2)cc1 [Example 67, N-[4-[3,5-bis(trifluoromethyl)-1H-pyrazol-1-yl]phenyl]-4-cyanobenzamide] | – | 100% | 254 nM | – | – |
| < 80 °C | CC(C(=O)Nc1ccc(-n2nc(C(F)(F)F)cc2C(F)(F)F)cc1)c1ccc(C(=O)c2cccs2)cc1 (stereo not drawn) [Example 177, N-[4-[3,5-bis(trifluoromethyl)-1H-pyrazol-1-yl]phenyl]-α-methyl-4-(2-thienylcarbonyl)benzeneacetamide] | – | – | – | 4(1) % | – |
| 138 to 139 °C | O=C(Nc1ccc(-n2nc(C(F)(F)F)cc2C(F)(F)F)cc1)c1ccc(F)c(Cl)c1 [Example 210, N-[4-[3,5-bis(trifluoromethyl)-1H-pyrazol-1-yl]phenyl]-3-chloro-4-fluorobenzamide] | – | – | 239 nM | – | 100% |
| 180 to 181 °C | Cc1noc(C)c1C(=O)Nc1ccc(-n2nc(C(F)(F)F)cc2C)cc1 [Example 283, 3,5-Dimethyl-N-[4-[5-methyl-3-(trifluoromethyl)-1H-pyrazol-1-yl]phenyl]-4-isoxazolecarboxamide] | – | 99% | 1040 nM | – | – |
| 140 to 143 °C | COc1ccc(C(=O)Nc2ccc(-n3nc(C(F)(F)F)cc3C(F)(F)F)cc2)c(Cl)c1 [Example 215, N-[4-[3,5-bis(trifluoromethyl)-1H-pyrazol-1-yl]phenyl]-2-chloro-4-methoxybenzamide] | – | – | 126 nM | – | 100% |
| 147 to 152 °C | O=C(Nc1cccc(-n2nc(C(F)(F)F)cc2C(F)(F)F)c1)c1cc([N+](=O)[O-])ccc1Cl [Example 199, N-[3-[3,5-bis(trifluoromethyl)-1H-pyrazol-1-yl]phenyl]-2-chloro-5-nitrobenzamide] | 30% | – | – | – | – |
| 156 to 158 °C | O=C(Nc1ccc(-n2nc(C(F)(F)F)cc2C(F)(F)F)cc1)c1ccc(Cl)cc1F [Example 296, N-(4-(3,5-bis(trifluoromethyl)-1H-pyrazol-1-yl)phenyl)-4-chloro-2-fluorobenzamide] | – | – | 44 nM | – | – |
| 160 to 162 °C | O=C(Nc1ccc(-n2nc(C(F)(F)F)cc2C(F)(F)F)cc1)c1cccc(CO)c1 [Example 51, N-[4-[3,5-bis(trifluoromethyl)-1H-pyrazol-1-yl]phenyl]-3-(hydroxymethyl)benzamide] | – | – | 778 nM | – | 100% |
| 162 to 163 °C | N#Cc1cccc(C(=O)Nc2ccc(-n3nc(C(F)(F)F)cc3C(F)(F)F)cc2)c1 [Example 137, N-[4-[3,5-bis(trifluoromethyl)-1H-pyrazol-1-yl]phenyl]-3-cyanobenzamide] | – | 98% | 120 nM | – | – |
| 158 to 159 °C | O=C(Nc1ccc(-n2nc(C(F)(F)F)cc2C(F)(F)F)cc1)c1cc(F)c(F)c(F)c1 [Example 227, N-[4-[3,5-bis(trifluoromethyl)-1H-pyrazol-1-yl]phenyl]-3,4,5-trifluorobenzamide] | – | – | 257 nM | – | 100% |
| 108 to 110 °C | CC1(C(=O)Nc2ccc(-n3nc(C(F)(F)F)cc3C(F)(F)F)cc2)C=CCCC1 (stereo not shown) [Example 9, N-[4-[3,5-bis(trifluoromethyl)-1H-pyrazol-1-yl]phenyl]-1-methyl-2-cyclohexene-1-carboxamide] | 35% | – | – | – | – |
| 193 to 194 °C | O=C(Nc1ccc(-n2nc(C(F)(F)F)cc2C(F)(F)F)cc1)c1ccc(O)c([N+](=O)[O-])c1 [Example 180, N-[4-[3,5-bis(trifluoromethyl)-1H-pyrazol-1-yl]phenyl]-4-hydroxy-3-nitrobenzamide] | – | – | 2870 nM | – | 95% |
| 204 to 206 °C | Nc1ccccc1C(=O)Nc1ccc(-n2nc(C(F)(F)F)cc2C(F)(F)F)cc1 [Example 163, 2-amino-N-[4-[3,5-bis(trifluoromethyl)-1H-pyrazol-1-yl]phenyl]benzamide] | – | 98% | 235 nM | – | – |
| 187 to 188 °C | COc1cncc(Cl)c1C(=O)Nc1ccc(-n2nc(C(F)(F)F)cc2C(F)(F)F)cc1 [Example 291, N-(4-(3,5-bis(trifluoromethyl)-1H-pyrazol-1-yl)phenyl)-3-chloro-5-methoxyisonicotinamide] | – | – | 411 nM | – | – |
| 143 to 145 °C | O=C(Nc1ccc(-n2nc(C(F)(F)F)cc2C(F)(F)F)cc1)c1cccc(C(F)(F)F)c1 [Example 101, N-[4-[3,5-bis(trifluoromethyl)-1H-pyrazol-1-yl]phenyl]-3-(trifluoromethyl)benzamide] | – | 100% | 2230 nM | – | – |
| 155 to 157 °C | O=C(Nc1ccc(-n2nc(C(F)(F)F)cc2C(F)(F)F)cc1)c1ccc(F)cc1Cl [Example 206, N-[4-[3,5-bis(trifluoromethyl)-1H-pyrazol-1-yl]phenyl]-2-chloro-4-fluorobenzamide] | – | – | 61 nM | – | 100% |
| 127 to 128 °C | O=C(Nc1ccc(-n2nc(C(F)(F)F)cc2C(F)(F)F)cc1)c1c(F)cccc1F [Example 160, N-[4-[3,5-bis(trifluoromethyl)-1H-pyrazol-1-yl]phenyl]-2,6-difluorobenzamide] | 1% | – | – | – | – |
| 82 to 84 °C | O=C(Nc1ccc(-n2nc(C(F)(F)F)cc2C(F)(F)F)cc1)C1CCCN1 (stereo not shown) [Example 242, N-[4-[3,5-bis(trifluoromethyl)-1H-pyrazol-1-yl]phenyl]-2-pyrrolidinecarboxamide] | 3% | – | – | – | – |
| 211 to 212 °C | CCOC(=O)c1cccc(NC(=O)Nc2ccc(-n3nc(C(F)(F)F)cc3C(F)(F)F)cc2)c1 [Example 13, ethyl 3-[[[[4-[3,5-bis(trifluoromethyl)-1H-pyrazol-1-yl]phenyl]amino]carbonyl]amino]-benzoate] | – | 99% | 2840 nM | – | – |
| 138 to 140 °C | O=C(Nc1ccc(-n2nc(C(F)(F)F)cc2-c2cccnc2)cc1)c1ccccc1F [Example 310, 2-fluoro-N-(4-(5-(3-pyridinyl)-3-(trifluoromethyl)-1H-pyrazol-1-yl)phenyl)benzamide] | – | – | 335 nM | – | – |
| 200 to 201 °C | O=C(Nc1ccc(-n2nc(C(F)(F)F)cc2C(F)(F)F)cc1)c1ccc(C(F)(F)F)cc1C(F)(F)F [Example 183, N-[4-[3,5-bis(trifluoromethyl)-1H-pyrazol-1-yl]phenyl]-2,4-bis(trifluoromethyl)benzamide] | – | – | 542 nM | – | 94% |
| 109 to 110 °C | COc1cccc2cc(C(=O)Nc3ccc(-n4nc(C(F)(F)F)cc4C(F)(F)F)cc3)oc12 [Example 49, N-[4-[3,5-bis(trifluoromethyl)-1H-pyrazol-1-yl]phenyl]-7-methoxy-2-benzofurancarboxamide] | 9% | – | – | – | – |
| 154 to 156 °C | O=C(Nc1ccc(-n2nc(C(F)(F)F)cc2C(F)(F)F)cc1)c1cc(Cl)ccc1Cl [Example 208, N-[4-[3,5-bis(trifluoromethyl)-1H-pyrazol-1-yl]phenyl]-2,5-dichlorobenzamide] | – | – | 149 nM | – | 99% |
| 163 to 166 °C | O=C(Nc1ccc(-n2nc(C(F)(F)F)cc2C(F)(F)F)cc1)c1ccc(Cl)cc1[N+](=O)[O-] [Example 117, N-[4-[3,5-bis(trifluoromethyl)-1H-pyrazol-1-yl]phenyl]-4-chloro-2-nitrobenzamide] | – | 100% | 158 nM | – | – |
| 115 to 117 °C | O=C(Nc1ccc(-n2nc(C(F)(F)F)cc2C(F)(F)F)cc1)c1ccc(Cl)nc1Cl [Example 149, N-[4-[3,5-bis(trifluoromethyl)-1H-pyrazol-1-yl]phenyl]-2,6-dichloro-3-pyridinecarboxamide] | – | 100% | 336 nM | – | – |
| 94 to 95 °C | CC(=O)N1CCC(C(=O)Nc2ccc(-n3nc(C(F)(F)F)cc3C(F)(F)F)cc2)CC1 [Example 174, 1-Acetyl-N-[4-[3,5-bis(trifluoromethyl)-1H-pyrazol-1-yl]phenyl]-4-piperidinecarboxamide] | – | – | 730 nM | – | 99% |
| 170 to 173 °C | O=C(COc1ccccc1[N+](=O)[O-])Nc1ccc(-n2nc(C(F)(F)F)cc2C(F)(F)F)cc1 [Example 168, N-[4-[3,5-bis(trifluoromethyl)-1H-pyrazol-1-yl]phenyl]-2-(2-nitrophenoxy)acetamide] | 20% | – | – | – | – |
| 200 to 202 °C | O=C(Nc1ccc(-n2nc(C(F)(F)F)cc2C(F)(F)F)cc1)c1ccc(Cl)cc1O [Example 220, N-[4-[3,5-bis(trifluoromethyl)-1H-pyrazol-1-yl]phenyl]-4-chloro-2-hydroxybenzamide] | – | – | 4230 nM | – | 100% |
